Data published in patent publication US20220380473A1, “ANTI-GAL3 ANTIBODIES AND USES THEREOF” (TrueBinding, Inc., priority 2019, published 2022).

Tests used:
[1] = biological target: T1, interaction between Gal3 and TIM-3 (Mus musculus, UniProt P16110); assay: Blocking ELISA, mouse Gal3 coated plate and mouse TIM-3 Fc; assay type: binding; details: mGal3 coated plate, mouse TIM-3 Fc
T1 construct: purchased BioLegend (mouse Gal3); R&D systems (mouse TIM-3 Fc)
Protocol: ELISA assays were also performed to test the interaction between Gal3 and TIM-3. 96 well ELISA plates (ThermoFisher Scientific) were coated with mouse Gal3 protein (BioLegend, San Diego, Calif.) in PBS or human Gal9 protein (R&D systems) in PBS or phosphatidylserine (PS) (Sigma) in ethanol and incubated at 4° C. for overnight. The plate was washed three times with TBST and then blocked with PBS buffer containing 2% BSA at room temperature for 1 hour. In FIG. 5A, different anti Gal3 antibodies, i.e. mGal3 polyclonal antibody (R&D systems), mAb IMT001 (also described in WO 2019/023247, hereby expressly incorporated by reference in its entirety), mAb M3/38 (Thermofisher Scientific) (FIG. 5A), were added to well that has been coated with Gal3. The antibodies were incubated for 10 minutes and mouse TIM-3 Fc were then added to the plates and incubated for an additional one-hour incubation. Plates were then washed for three times and followed by incubation with anti-human-IgG-HRP (Jackson ImmunoResearch) for 1 h at room temperature. The color was developed with TMB subtract (GeneTex, Irvine, Calif.) after three time washes with TBST and the reaction was terminated with 1N HCl. The optical density (OD) was read at 450 nm. The results were expressed as the average OD of duplicates±SD. […]

Gal9 binding to TIM-3 = biological target: T2, Gal9 binding to TIM-3 (Homo sapiens, UniProt O00182); assay: Sugar-dependence ELISA, hGal9 coated plate and mouse TIM-3 Fc
T2 construct: purchased R&D systems
T2 sequence (O00182 whole entry): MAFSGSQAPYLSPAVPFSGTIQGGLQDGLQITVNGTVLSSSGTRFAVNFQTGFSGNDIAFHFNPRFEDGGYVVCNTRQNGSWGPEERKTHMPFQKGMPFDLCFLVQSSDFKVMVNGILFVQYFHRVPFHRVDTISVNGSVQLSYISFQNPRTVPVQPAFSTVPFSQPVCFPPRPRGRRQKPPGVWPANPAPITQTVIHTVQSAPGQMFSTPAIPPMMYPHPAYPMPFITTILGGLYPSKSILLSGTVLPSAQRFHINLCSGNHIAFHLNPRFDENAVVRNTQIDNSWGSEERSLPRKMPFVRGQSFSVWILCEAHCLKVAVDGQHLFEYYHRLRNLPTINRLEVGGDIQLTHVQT

T1 sequence (P16110 2-264 limits assumed): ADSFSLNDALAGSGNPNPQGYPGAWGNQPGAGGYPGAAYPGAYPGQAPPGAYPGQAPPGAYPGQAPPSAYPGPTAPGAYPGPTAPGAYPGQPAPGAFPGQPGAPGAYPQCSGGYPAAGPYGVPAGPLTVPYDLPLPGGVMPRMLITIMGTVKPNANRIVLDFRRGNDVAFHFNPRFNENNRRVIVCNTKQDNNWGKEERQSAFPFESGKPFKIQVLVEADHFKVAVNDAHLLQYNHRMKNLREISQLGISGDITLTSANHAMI

block of Gal3 binding to TIM-3 [1]: minimal
reduction in signal, Gal9-TIM-3 binding (Gal9 binding to TIM-3; 25 mM α-Lactose present vs absent): more than 10 fold
block of Gal9 binding to TIM-3 (Gal9 binding to TIM-3; 25 mM α-Lactose, hGal9 coated plate): blocked
Structure (SMILES): OC[C@H]1O[C@@H](O[C@H]2[C@H](O)[C@@H](O)[C@@H](O)O[C@@H]2CO)[C@H](O)[C@@H](O)[C@H]1O [lactose, α-Lactose, reference compound]
